This is an account of results in patent US20220339135A1, “COMPOSITIONS AND METHODS FOR MODULATING AN INFLAMMATORY RESPONSE” (Enzychem Lifesciences Corporation, priority 2019, published 2022).

Data set [1] relates to ERK, p38 MAPK, JNK in THP-1 cells. The experiment in a line: Gemcitabine-induced phosphorylation of ERK, p38 MAPK, JNK, western blot. The data set is classed as cell-based, human. The following applies: inhibitor of NADPH oxidase. As to the method: Total cells were lysed on ice for 30 minutes in RIPA buffer composed of 50 mM Tris-HCl (pH 7.4), 150 mM NaCl, 2 mM EDTA, 1% NP-40, 0.5% sodium deoxycholate, 0.1% SDS, 1 mM phenylmethylsulfonyl fluoride (PMSF), 10 mM sodium fluoride, 2 mM sodium pyrophosphate, 10 mM β-glycerophosphate, 10 mM sodium orthovanadate. Membrane-and-cytoplasmic protein fractions of cultured cells were obtained with Mem-PER Plus Membrane Protein Extraction Kit (Thermo Scientific, MA, USA) according to the manufacturer's instructions. The lysates were centrifuged at 13,000 rpm for 20 minutes at 4° C. and protein concentrations were determined using the Bradford assay (Bio-Rad Laboratories). Denatured samples were mixed with a 5×SDS-PAGE loading buffer and heated to 100° C. for 15 min. The samples were separated on the 10% of SDS-PAGE gel and transferred to polyvinylidene difluoride (PVDF) membranes (Merck Millipore Corporation, MA, USA). Membranes were blocked with 5% non-fat milk in PBS (10 mM Tris-HCl, pH7.5, 150 mM NaCl) for 1 h and probed with primary antibodies against ERK1/2, phospho-ERK1/2, P38, phospho-P38, SAPK/JNK, phospho-SAPK/JNK, Na, K-ATPase, α-Tubulin, and β-actin from Cell Signaling Technology (MA, USA), Rac1 from Merck Millipore Corporation), p47phox and phospho-p47phox from Invitrogen, adenosine receptor A1 from Abcam, β arrestin-1 from Santa Cruz Technology for overnight at 4° C. The blots were washed and incubated with appropriate secondary antibodies and visualized using Pierce ECL Western Blotting Substrate (Thermo Scientific).
(A western blot detects proteins with antibodies after separation by electrophoresis.)

Data set [2] relates to intracellular calcium in dHL-60 cells. The experiment in a line: Fluo-4 calcium assay. The data set is classed as cell-based, human. On the procedure: Human leukemia line (HL-60) cells were differentiated (dHL-60) to neutrophil-like cells in the culture medium with the addition of 1.3% DMSO (Sigma) for 5 days in a humidified atmosphere at 37° C. without changing the medium. dHL-60 cells (2×10^5 cells/mL) were loaded with 5 μM fluo-4 AM for 45 minutes and washed three times with warmed modified (37° C.) HBSS buffer (137.93 mM NaCl, 5.33 mM KCl, 2 mM CaCl2), 1 mM MgSO4, 2.38 mM HEPES, 5.5 mM glucose, pH to 7.4). The cells were seeded on black-walled 96-well plates and then treated with vehicle (0.1% DMSO), ionomycin (5 μM; positive control) or PLAG (100 μg/mL) just before measurement. Baseline fluorescence was measured before treatment, and fluorescence was read every 20 s for 700 s using an excitation wavelength of 494 nm, an emission wavelength of 516 nm in a FlexStation 3 microplate reader (Molecular Devices). Fluorescence values were reported as F/Fo according to the calculation: [ΔF=(494 nm)f/(516 nm)f−(494 nm)0/(516 nm)0]. For studies in 0 mM external calcium, the cells were loaded as mentioned earlier. After being loaded, the cells were washed four times with calcium-free HBSS. The remainder of the study was carried out in calcium-free HBSS.
(§1) HL-60 cells were differentiated (dHL-60) to neutrophil-like cells in the culture medium with the addition of 1.3% DMSO (Sigma) for 5 days in a humidified atmosphere at 37° C. without changing the medium. dHL-60 cells (2×10^5 cells/mL) were loaded with 5 μM fluo-4 AM for 45 minutes and washed three times with warmed modified (37° C.) HBSS buffer (137.93 mM NaCl, 5.33 mM KCl, 2 mM CaCl2, 1 mM MgSO4, 2.38 mM HEPES, 5.5 mM glucose, pH to 7.4). […] Baseline fluorescence was measured before treatment, and fluorescence was read every 20 seconds for 700 seconds using an excitation wavelength of 494 nm, an emission wavelength of 516 nm in a FlexStation 3 microplate reader (Molecular Devices). Fluorescence values were reported as F/Fo according to the calculation: [ΔF=(494 nm)f/(516 nm)f−(494 nm)0/(516 nm)0]. […]
as §1, with “s” for “seconds”, “Devices).” for “Devices). Fluorescence values were reported as F/Fo according to the calculation: [ΔF=(494 nm)f/(516 nm)f−(494 nm)0/(516 nm)0].”

In data set [3] the test system is LPS-induced acute lung injury. The data set is described as follows: LPS-induced acute lung injury (ALI) in mice. The data set is classed as in vivo. The following applies: LPS-treated mice, co-treatment.
Data set [4] relates to gemcitabine-induced neutrophil extravasation. The data set is described as follows: Gemcitabine-induced neutropenia mice model. The data set is classed as in vivo. On the procedure:
Male BALB/c mice were randomly divided into 3 groups; normal control group (n=5), gemcitabine only group (n=5) and gemcitabine with PLAG group (n=5). The mice were intraperitoneally (i.p.) injected with 50 mg/kg gemcitabine to induce neutropenia. PLAG was diluted with phosphate-buffered saline (PBS) and then orally administrated at a dose of 50 or 250 mg/kg/day. The normal control group was administered PBS only during the experiment. The whole blood was collected from the orbital sinuses using capillary tubes (Kimble Chase Life Science and Research Products LLC, FL, USA) and collection tubes containing K3E-K3EDTA (Greiner Bio-One International, Germany). To obtain peritoneal cells, 5 ml of cold PBS was injected to the left side of the peritoneal wall using a 5 mL syringe, and the fluid was aspirated from the peritoneum. The collected cells were counted by complete blood count (CBC) analysis using Mindray BC-5300 auto-hematology analyzer (Shenzhen Mindray Biomedical Electronics, China). To establish a 4T1 tumor-bearing mice model, the murine 4T1 mammary carcinoma cells (1×10^5) were subcutaneously injected on the right side of the abdomen. On the 10th day after tumor injection, the mice were intraperitoneally (i.p.) injected with 50 mg/kg gemcitabine, and the next day the whole blood was collected from the orbital sinuses as mentioned above before sacrificing the animals to obtain different organs of the body for RT-PCR.
PLAG inhibits gemcitabine-induced neutrophil extravasation into the peritoneum by down-regulating the expression of adhesion molecules in normal BALB/c mice. Male BALB/c mice of 8-10 weeks of age were orally administrated with 50 or 250 mg/kg of PLAG and then were intraperitoneally injected with 50 mg/kg gemcitabine. After 24 h, blood samples were collected by retro-orbital bleeding, and the number of blood neutrophils was determined by CBC analysis. Each group contains five mice. The population of blood neutrophils was analyzed by flow cytometry. Red cell-lysed whole blood was stained with FITC-conjugated anti-Ly6G and PE-Cy7-conjugated anti-CD11b antibodies to determine the circulating neutrophil population. Ly6G+/CD11b+ cells were further stained with APC-conjugated anti-L-selectin and APC-conjugated anti-LFA-1 antibodies and were analyzed by flow cytometry to determine the expression of adhesion molecules.
The mice were intraperitoneally (i.p.) injected with 50 mg/kg gemcitabine to induce neutropenia. PLAG was diluted with phosphate-buffered saline (PBS) and then orally administrated at a dose of 50 or 250 mg/kg/day. The normal control group was administered PBS only during the experiment. At 15 h after gemcitabine treatment, the whole blood was collected from the orbital sinuses using capillary tubes (Kimble Chase Life Science and Research Products LLC, FL, USA) and collection tubes containing K3E-K3EDTA (Greiner Bio-One International, Kremsmünster, Austria). To obtain peritoneal cells, 5 ml of cold PBS was injected to the left side of the peritoneal wall using a 5 mL syringe, and the fluid was aspirated from the peritoneum. The collected cells were counted by complete blood count (CBC) analysis using Mindray BC-5300 auto-hematology analyzer (Shenzhen Mindray Biomedical Electronics, Guangdong Sheng, China).
To establish a 4T1 tumor-bearing mice model, the murine 4T1 mammary carcinoma cells (1×105) were subcutaneously injected on the right side of the abdomen. On the 10th day after tumor injection, the mice were intraperitoneally (i.p.) injected with 50 mg/kg gemcitabine, and the next day the whole blood was collected from the orbital sinuses as mentioned above before sacrificing the animals to obtain different organs of the body.

Data set [5] concerns citrullinated histone H3 in dHL-60 cells. The data set is described as follows: Histone H3 citrullination, western blot. The data set is classed as cell-based, human. The following applies: time-dependent. On the procedure:
dHL-60 cells were lysed on ice for 30 minutes in RIPA buffer composed of 50 mM Tris-HCl (pH 7.4), 150 mM NaCl, 2 mM EDTA, 1% NP-40, 0.5% sodium deoxycholate, 0.1% SDS, 1 mM phenylmethylsulfonyl fluoride (PMSF), 10 mM sodium fluoride, 2 mM sodium pyrophosphate, 10 mM β-glycerophosphate, 10 mM sodium orthovanadate. The lysates were centrifuged at 13,000 rpm for 20 minutes at 4° C. and protein concentrations were determined using the Bradford assay (Bio-Rad Laboratories). Denatured samples were mixed with a 5×SDS-PAGE loading buffer and heated to 100° C. for 15 min. The samples were separated on the 10% of SDS-PAGE gel and transferred to polyvinylidene difluoride (PVDF) membranes (Merck Millipore Corporation, MA, USA). Membranes were blocked with 5% non-fat milk in PBS (10 mM Tris-HCl, pH7.5, 150 mM NaCl) for 1 h and probed with primary antibodies against histone H3 (citrulline R2+R8+R17) from abcam (USA) and β-actin from cell signaling (USA) for overnight at 4° C. The blots were washed and incubated with appropriate secondary antibodies and visualized using Pierce™ ECL Western Blotting Substrate (Thermo Scientific).

[6] abbreviates: normal BALB/c mice, 15 hours after gemcitabine 50 mg/kg i.p.

Each structure is given as a SMILES string.

With `c1ccc2c(c1)[I+]c1ccccc1-2` [DPI, diphenyleneiodonium, reference compound], the “gemcitabine-induced phosphorylation of ERK, p38 MAPK and JNK” value in data set [1] was “dose-dependently decreased”.
In the case of `COc1ccc2c(c1)CC[C@@H]1[C@@H]2CC[C@]2(C)[C@@H](NCCCCCCN3C(=O)C=CC3=O)CC[C@@H]12` [U73122, reference compound], the “PLAG-induced intracellular calcium increase” value in data set [2] (PLC inhibitor, dose-dependent) is given as “inhibited”.
For `CCCCCCCCCCCCCCCC(=O)O` [PA, palmitic acid, reference compound], in data set [3], the “number of neutrophils in BALF” value is reported as “no effect”.
Take `CCCCCC=CCC=CCCCCCCCC(=O)OC(CO)CO` [HLH, hydroxyl linoleic hydroxyl glycerol, reference compound]: in data set [3], the “number of neutrophils in BALF” value is given as “no effect”.
For `CCCCC/C=C\C/C=C\CCCCCCCC(=O)O` [LA, linoleic acid, reference compound], the “number of neutrophils in BALF” value in data set [3] is “no effect”.
Consider `Nc1ccn([C@@H]2O[C@H](CO)[C@@H](O)C2(F)F)c(=O)n1` [gemcitabine, reference compound], for which, in data set [4] (4T1 tumor-bearing mice, gemcitabine 50 mg/kg i.p.), the “mRNA expression of MIP-2 in tissues” value was “increases”. The “migration of circulating neutrophils into the peritoneal cavity” value in data set [4] (4T1 tumor-bearing mice, one day after gemcitabine 50 mg/kg i.p.) is recorded as “induced the migration”. In data set [4] (setting [6]), the circulating neutrophils result is “significant reduction” and the “neutrophils in the peritoneal cavity” value was “increase”.
Take `C[C@H](CCC(=O)O)C[C@H](C)C[C@H](C)C(=O)/C=C(\O)[C@H](C)C[C@H](C)C/C=C/[C@@H](C)[C@@H](O)[C@@H](C)[C@@H](O)C[C@@H]1CC[C@@](C)([C@H]2CC[C@@](C)([C@@H](C)O)O2)O1` [ionomycin, reference compound]: the “histone H3 citrullination” value in data set [5] is reported as “induced”. Besides, the “cytosolic calcium of dHL-60 cells” value in data set [2] (PLAG 100 μg/mL, ionomycin 5 μM) is listed as “increased”.
